{"source": "patent US20070270339A1", "about": "“Use of GPCR54 Ligands for the Treatment of Infertility” (SERONO, INC., priority 2004, published 2007)", "key": {"[1]": {"test_system": "gonadotropic axis (plasma LH and FSH)", "assay": "i.v. injection of Kiss-1: plasma LH and FSH levels, with or without Antide pretreatment", "assay_type": "in vivo, rat", "experimental": "(§1) All experiments were conducted in female Sprague-Dawley rats (180-200 g) obtained from Charles River (MA), fed with standard laboratory chow and water ad libitum, kept on 12 h light-dark in temperature and humidity controlled room.\n(§2) Ovariectomy and implantation of estrogen-containing capsule. To remove daily variance of plasma estrogen levels due to variable estrous cycle, both ovaries were removed under anesthesia through incision at the animal's back. Right before closure of the incision, two estrogen-containing capsules (0.5 mg/coupsule, Innovative Research of America, FL) were inserted subcutaneously at the middle of animal's back to maintain consistent basal physiological levels of plasma estrogen. Rats were allowed to recover for 7 days.\nJugular cannula insertion and tethering to automated blood sampler. The right jugular vein of anesthetized rats was exposed through a neck incision. A retaining suture was tied to the exposed vein at rostral end to manipulate the vein. The caudal end of the vein was clamped with a small forceps to prevent bleeding while a cannula, a polyethene tubing (OD 1.0 mm), was inserted in the middle of the vein through a 0.5 mm incision made with iris scissors. After the insertion of the cannula, a suture was tied around the vein at the caudal end to secure the cannula within the vein. The incision at the neck was closed with wound clips and the outer end of the cannula was attached to a tubing of an automated blood sampler (Bioanalytical Systems Inc., IN) filled with heparin-containing (20 IU/ml) sterile saline. The automated blood sampler consisting of a turning cage equipped with a food box and a water bottle, a balanced arm, a pumping system, a fraction collector and a controller was used to collect blood samples. A rat inserted of a jugular cannula was tethered to the balanced arm via a loosely-fitting plastic collar. The cage rotates to the counter direction of animal's movement to prevent twisting of the jugular cannula connected to a tubing of the sampler, as well as to allow the rat to eat, drink and move freely during the course of the blood collection. Rats were allowed to recover for 24 hours.\nAll experiments were carried out around between 13 h and 14 h. […]\n(§3) Changes of plasma LH and FSH concentration (ng/ml) after injection were obtained as the area under the curve (AUC). It was first determined for each animal by calculating the sum of post-treatment hormonal levels at 15, 30 and 45 min each of which was subtracted by basal levels (an average of pre-treatment levels at −15 and 0 min), then averaged as a group. Statistical differences among treatment groups were determined by one-way ANOVA followed by LSD as a post-hoc test. […]"}, "GPCR54": {"target": "GPCR54 (Homo sapiens, UniProt Q969F8)", "sequence (Q969F8 whole entry)": "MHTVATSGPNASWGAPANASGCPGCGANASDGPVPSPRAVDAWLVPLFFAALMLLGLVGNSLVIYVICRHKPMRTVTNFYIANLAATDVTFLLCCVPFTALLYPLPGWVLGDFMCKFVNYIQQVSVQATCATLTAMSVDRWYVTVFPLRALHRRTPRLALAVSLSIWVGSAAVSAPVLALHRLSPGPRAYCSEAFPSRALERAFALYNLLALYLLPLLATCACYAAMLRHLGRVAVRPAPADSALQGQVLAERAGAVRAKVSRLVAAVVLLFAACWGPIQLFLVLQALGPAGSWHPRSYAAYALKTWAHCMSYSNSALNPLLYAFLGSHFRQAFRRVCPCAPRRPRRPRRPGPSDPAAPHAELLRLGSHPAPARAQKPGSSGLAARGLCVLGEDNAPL", "settings": "peptides from placental tissue extract, Kotani et al. 2001; cited from earlier work"}, "LH and FSH release": {"test_system": "LH and FSH release", "assay": "in vivo comparison of GnRH and Kiss1 on release of LH and FSH over 45 minutes (FIG. 1)", "parameters": "species or system rat", "settings": "single administration, compared with GnRH", "experimental": "All experiments were carried out around between 13 h and 14 h. […] Blood samples (100 ul) were removed before (−15 and 0 min) and after (15, 30, 45 min) injection with the automated blood sampler. Each blood sample was replaced with an equivalent volume of the heparin-containing (20 IU/ml) sterile saline. Plasma was extracted and stored at −20° C. until determination of LH and FSH by enzyme-linked immunoassay and radioimmunoassay, respectively.\nChanges of plasma LH and FSH concentration (ng/ml) after injection were obtained as the area under the curve (AUC). It was first determined for each animal by calculating the sum of post-treatment hormonal levels at 15, 30 and 45 min each of which was subtracted by basal levels (an average of pre-treatment levels at −15 and 0 min), then averaged as a group. Statistical differences among treatment groups were determined by one-way ANOVA followed by LSD as a post-hoc test. An initial data set is shown in FIGS. 1A-P. Further data are described in Examples 2 and 3 below."}, "[2]": {"test_system": "gonadotropic axis (plasma LH and FSH)", "assay": "i.c.v. injection of Kiss-1: plasma LH and FSH levels", "assay_type": "in vivo, rat", "experimental": "as §1\nImplantation of intracerebroventricular cannula for i.c.v. experiment. The head of anesthetized rats was placed in the stereotaxic instrument and oriented such that the bregma and lambda was horizontal. An incision was made along the sagittal midline in an anterior-to-posterior direction. A hole, 1.5 mm in diameter, was drilled through the skull 0.9 mm posterior and 0.0 mm lateral to bregma. A 25 mm×22 gauge stainless steel cannula was lowered about 7 mm until cerebrospinal fluid could be aspirated from the 3rd ventricle via a 1 cc syringe connected to the cannula by a 5 cm section of Silastic tubing. After sealing the outer opening of the cannula, it was anchored to the skull with three stainless steel screws and dental acrylic cement then the incision was closed. Rats were allowed to recover for 14 days.\nas §2\nJugular cannula insertion and tethering to automated blood sampler. The right jugular vein of anesthetized rats was exposed through a neck incision. A retaining suture was tied to the exposed vein at rostral end to manipulate the vein. The caudal end of the vein was clamped with a small forceps to prevent bleeding while a cannula, a polyethene tubing (OD 1.0 mm), was inserted in the middle of the vein through a 0.5 mm incision made with iris scissors. After the insertion of the cannula, a suture was tied around the vein at the caudal end to secure the cannula within the vein. […]\nas §3"}}, "note": "No end group written: not given here."}
{"substance": "Antide [reference compound]", "values": [{"measurement": "prevention of GnRH- and Kiss-1-induced elevations of circulating gonadotropins levels", "setting": "[1]; Antide pretreatment 15 min before injection of 400 ug/kg of Kiss-1", "result": "successfully prevented"}]}
{"substance": "GnRH: GnRH, a positive control, obtained from Sigma (QHWSYGLRPG; Gonadoliberin-1; UniProt P01148 24-33, looked up) [reference compound]", "values": [{"measurement": "circulating gonadotropins levels", "setting": "[1]; GnRH positive control, estrogen-treated ovariectomized rats", "result": "induced elevations of circulating gonadotropins levels"}]}
{"substance": "SEQ ID NO:5: 14-amino acid kisspeptin from Kiss-1 with RF-amide at the C-terminus (Kotani et al.) (DLPNYNWNSFGLRF-NH2; listed as Homo sapiens)", "values": [{"measurement": "agonist activity at GPCR54", "setting": "GPCR54", "result": "agonists of GPCR54"}]}
{"substance": "SEQ ID NO:6: 13-amino acid kisspeptin from Kiss-1 with RF-amide at the C-terminus (Kotani et al.) (LPNYNWNSFGLRF-NH2; listed as Homo sapiens)", "values": [{"measurement": "agonist activity at GPCR54", "setting": "GPCR54", "result": "agonists of GPCR54"}]}
{"substance": "SEQ ID NO: 4: 54-amino acid kisspeptin from Kiss-1 with RF-amide at the C-terminus (Kotani et al.) (GTSLSPPPESSGSPQQPGLSAPHSRQIPAPQGAVLVQREKDLPNYNWNSFGLRF-NH2; listed as Homo sapiens)", "values": [{"measurement": "agonist activity at GPCR54", "setting": "GPCR54", "result": "agonists of GPCR54"}]}
{"substance": "Tyr-Asn-Trp-Asn-Ser-Phe-Gly-Leu-Arg-Phe-NH2 (YNWNSFGLRF-NH2; listed as Homo sapiens) [Kiss-1]", "values": [{"measurement": "LH and FSH production", "setting": "LH and FSH release", "result": "sufficient to drive LH and FSH production similar to GnRH"}, {"measurement": "plasma FSH levels", "setting": "[1]; i.v. injection, estrogen-treated ovariectomized rats", "result": "dose-dependent increases"}, {"measurement": "plasma LH levels", "setting": "[1]; i.v. injection, estrogen-treated ovariectomized rats, with the exception of LH response at the highest dose", "result": "dose-dependent increases"}, {"measurement": "i.c.v. dose to yield FSH response as fraction of i.v. dose", "setting": "[2]; FSH, i.c.v. versus i.v.", "result": "1/100"}, {"measurement": "i.c.v. dose to yield LH response as fraction of i.v. dose", "setting": "[2]; LH, i.c.v. versus i.v.", "result": "1/25"}, {"measurement": "LH release", "setting": "[2]; i.c.v. injection, estrogen-treated ovariectomized rats", "result": "dose-dependently stimulated LH release"}, {"measurement": "FSH levels", "setting": "[2]; i.c.v. injection, higher dose not as effective as the lower dose", "result": "significant increase of FSH levels"}]}
